What was measured:
BT-474 [1] = assay: normalised viability (% of control), CellTiter-Blue; higher = more viable cells (about 100 = DMSO control); conditions: 100 nM; incubation time: 72 h
Description: (§1)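 DSRT, CellTiter-Blue viability, 72 h incubation. Signal is normalised to DMSO and benzethonium chloride controls. Value is the normalised response at dose 3.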

DU-4475 [2] = assay: as above; conditions: 10 nM; incubation time: 72 h
Description: as §1

HCC1599 [3] = assay: as above; conditions: 100 nM; incubation time: 72 h
Description: as §1

MDA-MB-453 [4] = assay: as above; conditions: 10 nM; incubation time: 72 h
Description: as §1

MFM-223 [5] = assay: as above; conditions: 100 nM; incubation time: 72 h
Description: as §1

SK-BR-3 [6] = assay: as above; conditions: 100 nM; incubation time: 72 h
Description: as §1

BT-474 [7] = assay: normalised viability (% of control), CellTiter-Blue; higher = more viable cells (about 100 = DMSO control); conditions: incubation time: 72 h
How it was run: (§2)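 Compound dissolved in 5 µl medium was pre-loaded into 384-well plates, and breast cancer cell lines in 20 µl suspension were seeded on top and incubated 72 h. After adding 2.5 µl CellTiter-Blue reagent for 2 h at 37 °C, fluorescence was read at 560/590 nm. Plates were normalised to vehicle (100) and a positive kill control (0), with Z'-factor quality control. Each value is normalised viability at a single listed concentration from the series.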

BT-549 = assay: as above; conditions: incubation time: 72 h
How it was run: as §2

CAL-120 = assay: as above; conditions: incubation time: 72 h
How it was run: as §2

CAL-148 = assay: as above; conditions: incubation time: 72 h
How it was run: as §2

CAL-51 = assay: as above; conditions: incubation time: 72 h
How it was run: as §2

CAL-85-1 = assay: as above; conditions: incubation time: 72 h
How it was run: as §2

DU-4475 [8] = assay: as above; conditions: incubation time: 72 h
How it was run: as §2

HCC1143 = assay: as above; conditions: incubation time: 72 h
How it was run: as §2

HCC1599 [9] = assay: as above; conditions: incubation time: 72 h
How it was run: as §2

HCC1937 = assay: as above; conditions: incubation time: 72 h
How it was run: as §2

HDQ-P1 = assay: as above; conditions: incubation time: 72 h
How it was run: as §2

Hs578T [10] = assay: as above; conditions: incubation time: 72 h
How it was run: as §2

MDA-MB-231 = assay: as above; conditions: incubation time: 72 h
How it was run: as §2

MDA-MB-436 = assay: as above; conditions: incubation time: 72 h
How it was run: as §2

MDA-MB-453 [11] = assay: as above; conditions: incubation time: 72 h
How it was run: as §2

MDA-MB-468 = assay: as above; conditions: incubation time: 72 h
How it was run: as §2

MFM-223 [12] = assay: as above; conditions: incubation time: 72 h
How it was run: as §2

SK-BR-3 [13] = assay: as above; conditions: incubation time: 72 h
How it was run: as §2

Hs578T [14] = assay: drug sensitivity score (DSS), CellTox Green (DSS (AUC-based score)); higher = stronger drug effect (viability inhibition or cytotoxicity); extreme values may be limits of the assay; conditions: incubation time: 72 h
How it was run: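 The area under the fitted dose-response curve was used to calculate the drug sensitivity score. Cells from breast cancer lines were incubated for 72 h in 384-well plates with compound at 5 concentrations spaced 10-fold over a 10,000-fold range specific to each compound. Plates were read for CellTox Green and then CellTiter-Glo, and normalised to 0.1 % DMSO and a positive kill control.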

Clc1ccc(C(c2ccccc2Cl)C(Cl)Cl)cc1 (stereo unspecified) [Mitotane]
Conditions	drug sensitivity score	normalised viability [%]
BT-474 [1]	–	127
DU-4475 [2]	–	98.6
HCC1599 [3]	–	107
Hs578T [14]	0	–
MDA-MB-453 [4]	–	102
MFM-223 [5]	–	93.9
SK-BR-3 [6]	–	112

normalised viability [%]
Conditions	3 nM	10 nM	30 nM	100 nM	1000 nM	10000 nM
BT-474 [7]	–	118	–	–	108	130
BT-549	–	83	–	–	93	102
CAL-51	117	–	106	107	–	–
CAL-85-1	92.6	–	86.2	101	–	–
CAL-120	–	80.8	–	–	87.8	86
CAL-148	89.2	–	94.2	95.7	–	–
DU-4475 [8]	109	–	87.5	93.9	–	–
HCC1143	–	82.9	–	–	81.2	91.4
HCC1599 [9]	–	97	–	–	88.2	97.1
HCC1937	–	79.9	–	–	91.1	79.4
HDQ-P1	117	–	102	100	–	–
Hs578T [10]	–	96.6	–	–	86.7	107
MDA-MB-231	–	85.4	–	–	94.8	119
MDA-MB-436	–	88.9	–	–	106	90.9
MDA-MB-453 [11]	117	–	94.6	103	–	–
MDA-MB-468	–	108	–	–	102	102
MFM-223 [12]	–	90.3	–	–	96	87.9
SK-BR-3 [13]	–	105	–	–	104	82.3
